Assay [1] deals with T1, human purine NP (Homo sapiens, UniProt P00491).
T1 construct: gene PNP
T1 sequence (P00491 1-289): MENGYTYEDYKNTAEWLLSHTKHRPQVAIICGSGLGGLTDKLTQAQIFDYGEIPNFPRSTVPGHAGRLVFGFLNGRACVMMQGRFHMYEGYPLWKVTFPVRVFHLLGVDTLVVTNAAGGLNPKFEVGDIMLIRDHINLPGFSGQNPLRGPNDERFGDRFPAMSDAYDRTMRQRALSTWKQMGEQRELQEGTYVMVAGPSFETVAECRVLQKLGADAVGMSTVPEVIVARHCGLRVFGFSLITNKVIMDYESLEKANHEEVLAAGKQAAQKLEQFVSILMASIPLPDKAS
The assay is described as follows: HPLC of glycosylation products. Type of assay: biochemical. The note with it: 500 µM X, 500 µM ribose 1-phosphate; 1 g/L enzyme; pH 9 or pH 7; 50 °C.

Assay [2] concerns the target T2, GtPyNP (pyrimidine NP from G. thermoglucosidasius) (Parageobacillus thermoglucosidasius, UniProt A0AAN0YQC1).
T2 construct: gene deoA
The assay can be described thus: HPLC of glycosylation products. Type of assay: biochemical. The note with it: 500 µM X, 500 µM ribose 1-phosphate; 1 g/L enzyme; pH 9 or pH 7; 50 °C.

T2 sequence (A0AAN0YQC1 entry or part of it): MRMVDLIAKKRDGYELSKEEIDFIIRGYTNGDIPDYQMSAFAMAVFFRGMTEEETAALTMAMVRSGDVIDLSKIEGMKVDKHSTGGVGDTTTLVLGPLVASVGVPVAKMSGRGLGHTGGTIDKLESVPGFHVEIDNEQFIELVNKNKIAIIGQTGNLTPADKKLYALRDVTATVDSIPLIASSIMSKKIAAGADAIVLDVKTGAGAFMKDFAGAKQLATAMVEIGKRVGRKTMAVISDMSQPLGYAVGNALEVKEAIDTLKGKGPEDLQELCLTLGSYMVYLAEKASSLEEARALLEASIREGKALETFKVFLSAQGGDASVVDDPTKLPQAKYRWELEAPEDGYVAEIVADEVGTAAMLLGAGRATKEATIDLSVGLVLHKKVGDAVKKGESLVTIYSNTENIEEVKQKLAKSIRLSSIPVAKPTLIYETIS

In the case of `O=P(O)(O)O[C@H]1O[C@H](CO)[C@@H](O)[C@H]1O` [Rib1P, ribose 1-phosphate], the “HPLC of glycosylation products” value was “mammalian NPs (human purine NP)” in assay [1]; “purine and pyrimidine NP from Geobacillus thermoglucosidasius” in assay [2].
For the compound `O=c1[nH]c(=O)c2[nH]cnc2[nH]1` [X, xanthine], the “HPLC of glycosylation products” value in assay [1] is “mammalian NPs (human purine NP)”; in assay [2], “purine and pyrimidine NP from Geobacillus thermoglucosidasius”.
